Laboratory results reported in patent US20250387357A1 (SpringWorks Therapeutics, Inc., priority 2024, published 2025).

What was measured:
[1] = Pharmacokinetic parameters and characteristics of mirdametinib (Table A); set-up: species or system human; conditions: in vivo
UGT and CES enzymes = experiment: Metabolism, primary pathway; conditions: full wording over r33-r36: Metabolism involves glucuronidation and oxidation via UGT and CES enzymes

Excretion: Radioactivity in feces [1]: In feces: 27% | Excretion: Radioactivity in urine [1]: In urine: 68% | Excretion: Unchanged mirdametinib in urine [1]: In urine: 0.7% | Excretion: Unchanged mirdametinib in urine and feces [1]: In urine and feces: 9% | Metabolism primary pathway (UGT and CES enzymes): Metabolism involves
Compound: O=C(NOC[C@H](O)CO)c1ccc(F)c(F)c1Nc1ccc(I)cc1F (single isomer, unassigned) [mirdametinib]
